Source: patent US6586437B2, “(S)-hydroxynefazodone antipsychotic therapy” (Sepracor Inc., priority 1999, dated 2003)
pIC50: −log10 of the molar value. Counter-ions that a name gives are not always drawn. Values belong to the compound of their own block, whether it stands above or below them.

Tests used:
[1] = target: T1, norepinephrine uptake, rat hypothalamus synaptosomes (Rattus norvegicus, UniProt Q9WTR4); assay: Norepinephrine uptake functional assay (synaptosomes); format: biochemical, male Wistar rat; conditions: [3H]-norepinephrine, read-out: Monoamine Neuronal Transport IC50, NE uptake
T1 construct: synaptosomes isolated at Cerep in a 0.32 M sucrose buffer from a male Wistar rat hypothalamus; from tissue; host or cells: male Wistar rat hypothalamus synaptosomes
Experimental: Norepinephrine Uptake Functional Assay
Characterization of norepinephrine uptake is performed using synaptosomes isolated at Cerep in a 0.32 M sucrose buffer from a male Wistar rat hypothalamus. The uptake of radiolabeled norepinephrine by synaptosomes (100 μg of proteins/point) is allowed by incubating them for 20 minutes at 37° C. in presence of test compounds and [3H]-norepinephrine (0.1 μCi/point). The experiment is performed in a deep well.
Synaptosomes and [3H]-norepinephrine are prepared in a Krebs buffer pH 7.4 containing 25 mM NaHCO3, 11 mM glucose and 50 μM ascorbic acid. This incubation buffer is oxygenated during 5 minutes before incubation. Basal control is incubated for 20 minutes at 4° C. in order to avoid any uptake. Following this incubation the uptake is stopped by filtration through an “unifilter 96-wells GFB ” Packard plate washed with Krebs buffer containing 25 mM NaHCO3 in order to eliminate the free [3H]-norepinephrine. The radioactivity associated to the synaptosomes retained onto the unifilter corresponding to the uptake is then measured with a microplate scintillation counter Topcount, Packard using a scintillation liquid microscint 0, Packard.
[See Perovics and Müller, op.cit. (1995).]

α1 Receptor = assay: α1 receptor binding; conditions: read-out: α1 Receptor Binding IC50, Alpha1
[2] = cited from earlier work
dopaminergic receptors = conditions: in vitro binding studies; cited from earlier work
[3] = system: alpha1-adrenergic receptors; conditions: cited from earlier work
5-HT1A receptors = target: T2, 5-HT1A receptors (Homo sapiens, UniProt P08908); conditions: in vitro binding studies; cited from earlier work
T2 sequence (P08908 1-422): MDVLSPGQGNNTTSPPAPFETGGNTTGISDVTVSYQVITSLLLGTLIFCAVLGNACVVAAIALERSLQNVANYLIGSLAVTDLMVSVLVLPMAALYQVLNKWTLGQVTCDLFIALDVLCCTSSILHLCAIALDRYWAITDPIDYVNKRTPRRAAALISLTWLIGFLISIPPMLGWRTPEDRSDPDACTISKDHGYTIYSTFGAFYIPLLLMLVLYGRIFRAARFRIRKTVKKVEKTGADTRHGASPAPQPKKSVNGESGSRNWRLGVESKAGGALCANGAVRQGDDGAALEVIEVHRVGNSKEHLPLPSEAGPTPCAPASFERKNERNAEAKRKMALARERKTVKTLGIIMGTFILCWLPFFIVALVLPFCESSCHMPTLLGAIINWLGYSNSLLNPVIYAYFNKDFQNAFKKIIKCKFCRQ

cholinergic receptors = conditions: in vitro binding studies; cited from earlier work
[4] = system: beta adrenergic receptors; conditions: in vitro binding studies; cited from earlier work
benzodiazepine receptors = conditions: in vitro binding studies; cited from earlier work
[5] = system: alpha2 adrenergic receptors; conditions: in vitro binding studies; cited from earlier work

T1 sequence (Q9WTR4 1-597): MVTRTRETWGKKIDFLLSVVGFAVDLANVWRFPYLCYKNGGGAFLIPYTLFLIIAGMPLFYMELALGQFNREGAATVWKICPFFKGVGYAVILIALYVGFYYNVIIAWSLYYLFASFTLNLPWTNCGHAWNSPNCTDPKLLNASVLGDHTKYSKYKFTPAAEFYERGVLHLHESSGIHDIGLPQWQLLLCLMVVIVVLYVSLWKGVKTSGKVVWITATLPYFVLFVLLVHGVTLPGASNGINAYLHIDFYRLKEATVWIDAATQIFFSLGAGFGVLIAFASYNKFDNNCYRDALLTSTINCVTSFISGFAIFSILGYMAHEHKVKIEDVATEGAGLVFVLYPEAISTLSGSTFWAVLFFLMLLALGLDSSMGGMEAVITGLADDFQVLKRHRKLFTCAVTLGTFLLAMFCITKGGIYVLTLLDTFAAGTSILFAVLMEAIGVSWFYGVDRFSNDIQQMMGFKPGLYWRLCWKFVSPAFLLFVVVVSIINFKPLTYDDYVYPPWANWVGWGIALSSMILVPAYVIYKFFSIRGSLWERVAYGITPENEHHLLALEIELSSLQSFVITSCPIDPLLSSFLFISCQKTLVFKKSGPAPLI

pIC50 [1]: 6.00
pIC50 (α1 Receptor): 6.42
Compound: CC(O)c1nn(CCCN2CCN(c3cccc(Cl)c3)CC2)c(=O)n1CCOc1ccccc1 (racemic) [(RS)—OH, 2-[3-[4-(3-chlorophenyl)1-piperazinyl]propyl]-5-(1-hydroxyethyl)-2,4-dihydro-4-(phenoxyethyl)-3H-1,2,4-triazol-3-one]

pIC50 [1]: 5.82
pIC50 (α1 Receptor): 6.38
Compound: C[C@H](O)c1nn(CCCN2CCN(c3cccc(Cl)c3)CC2)c(=O)n1CCOc1ccccc1 [(S)—OH, (S)-2-{3-[4-(3-Chlorophenyl)-1-piperazinyl]propyl}-4-(2-phenoxyethyl)-5-[1-(hydroxy)-ethyl]-2,4-dihydro-[1,2,4]triazol-3-one]

Compound: CCc1nn(CCCN2CCN(c3cccc(Cl)c3)CC2)c(=O)n1CCOc1ccccc1 [Nefazodone hydrochloride]
absolute bioavailability ([2]; low and variable because of extensive metabolism): about 20%

pIC50 [1]: 5.92
pIC50 (α1 Receptor): 6.44
Compound: C[C@@H](O)c1nn(CCCN2CCN(c3cccc(Cl)c3)CC2)c(=O)n1CCOc1ccccc1 [(R)—OH, (R)-Hydroxynefazodone hydrochloride]

pIC50 (α1 Receptor): 6.51
Compound: CCc1nn(CCCN2CCN(c3cccc(Cl)c3)CC2)c(=O)n1CCOc1ccccc1 [Nefazodone]
affinity for dopaminergic receptors (dopaminergic receptors): no significant affinity
effect on alpha1-adrenergic receptors [3]: antagonize
affinity for 5-HT1A receptors (5-HT1A receptors): no significant affinity
affinity for cholinergic receptors (cholinergic receptors): no significant affinity
half-life ([2]; in vivo): 2 to 4 h
time of peak plasma concentrations ([2]; in vivo): about one
affinity for beta adrenergic receptors [4]: no significant affinity
affinity for benzodiazepine receptors (benzodiazepine receptors): no significant affinity
affinity for alpha2 adrenergic receptors [5]: no significant affinity
